These results are taken from patent US5057427A, “Method for resolution of stereoisomers” (Sepracor, Inc., priority 1988, dated 1991).

The structures appear in SMILES notation. Structures can show the parent of a compound that is named as a salt.

In data set [1] the target is T1, Protease VIII: "Subtilopeptidase A" (subtilisin Carlsberg) (Enzyme B) (Bacillus licheniformis, UniProt P00780).
T1 sequence (P00780 106-379): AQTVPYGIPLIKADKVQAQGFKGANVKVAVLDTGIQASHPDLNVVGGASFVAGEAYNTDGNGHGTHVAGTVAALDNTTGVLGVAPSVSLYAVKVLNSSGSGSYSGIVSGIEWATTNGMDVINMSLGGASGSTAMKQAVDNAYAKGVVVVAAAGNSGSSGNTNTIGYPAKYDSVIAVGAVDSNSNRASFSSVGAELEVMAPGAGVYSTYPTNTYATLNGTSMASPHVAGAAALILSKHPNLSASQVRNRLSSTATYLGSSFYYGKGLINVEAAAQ
The data set is described as follows: Homogeneous aqueous enzymatic resolution (ester hydrolysis) with Enzyme B. The format is biochemical. The conditions noted are these: for % e.e.: acid product.

Data set [2] relates to Protease XXIII: from Aspergillus oryzae (Enzyme A). The data set is described as follows: Homogeneous aqueous enzymatic resolution (ester hydrolysis) with Enzyme A. To be noted: for % e.e.: acid product.
Method: 10.0 millimole (mmol) of ibuprofen substrate ester 1 (the methyl sulfonate derivative) was dissolved in 100 ml of 0.2 M phosphate buffer of the appropriate cation (sodium or potassium, to be the same as the substrate counterion) at pH 7.0. 100 mg of enzyme A, as the
commercial preparation, was added directly to this solution, and the reaction mixture was capped and then shaken briefly until all the enzyme preparation had dispersed or dissolved. The reaction mixture was then allowed to stand at ambient temperature (20°-22° C.) for 20 hours. […] The combined organic layers were backwashed twice with one volume of water, once with one volume of saturated NaCl solution, and then dried over MgSO4.
Evaporation of the ether under reduced pressure left the resolved ibuprofen acid product; no other purification was performed. The optical rotation was measured in EtOH at a concentration c=1.0 for the ibuprofen acid product.
In this Example, 0.010 mol of ibuprofen ester 3 (the propyl sulfonate derivative) was dissolved in 100 ml 0.2 M sodium phosphate buffer at pH 7.8, and 150 mg of the commercial enzyme A preparation was added. The reaction was then handled as described for Examples 6.2.1.1-6.2.1.7.
In this Example, 0.010 mol of ibuprofen ester 2 (the ethyl sulfonate ester in the form of its potassium salt) were dissolved in 125 ml of 0.2 M sodium phosphate buffer at pH 7.0, and 150 mg of enzyme A was added to the reaction mixture as the commercially supplied preparation. The reaction was allowed to proceed for 18 hours, and the resulting product mixture was then worked-up as described above for Examples 6.2.1.1-6.2.1.7.
150 mg of Protease XXIII (A), as the commercially available preparation, was added to the reaction mixture, the reaction vessel was capped, and the entire heterogeneous reaction mixture was shaken in a wrist-action shaker for 18 hours. […] This mixture was then extracted twice with 200 ml of diethyl ether. The combined organic layers were backwashed twice with one volume of water, once with one volume of saturated NaCl, and the organic phase was then dried over MgSO4. Evaporation of the ether under reduced pressure left the resolved naproxen acid. No further purification was performed. The optical rotation of the product was measured in CHCl3 at a concentration c=1.0.
0.010 mol of naproxen ester 8 (the potassium salt of the ethyl sulfonate ester) was dispersed in 125 ml of 0.2 M sodium phosphate buffer at pH 7.8. 150 mg of enzyme A, as the commercially available preparation, were added, and the reaction handled as described in Example 6.2.1.1.
0.010 mol of ibuprofen ester 6 (the compound) were dissolved in 100 ml of 0.2 M sodium phosphate buffer at pH 7.0. 100 mg of enzyme A was added as the commercially available preparation, and the reaction handled as described above in Examples 6.2.1.1-6.2.1.7.
2.0 gm (0.0058 mole) of naproxen ester 9 (the sulfomethyl compound) was dissolved in 400 ml of 50 mM sodium phosphate buffer at pH 7.5. To the reaction were added 100 mg of Protease XXIII (A) as the commercially available preparation. After the enzyme had dissolved, the reaction mixture was incubated at 25 degrees for 16 hours. The reaction mixture was then acidified to pH 1-2 by the careful dropwise addition of concentrated HCl, and then it was extracted with ether (3×150 ml). The aqueous layer was retained. The combined organic layers were backwashed with water (2×100 ml), and these aqueous washings were added to the previously retained aqueous layer of the reaction. The ether layer was then washed once with 100 ml of brine, and dried over MgSO4.
Data set [3] has as its target T2, Protease XXVII: "Nagarse" (Enzyme D) (Bacillus amyloliquefaciens, UniProt P00782).
T2 sequence (P00782 108-382): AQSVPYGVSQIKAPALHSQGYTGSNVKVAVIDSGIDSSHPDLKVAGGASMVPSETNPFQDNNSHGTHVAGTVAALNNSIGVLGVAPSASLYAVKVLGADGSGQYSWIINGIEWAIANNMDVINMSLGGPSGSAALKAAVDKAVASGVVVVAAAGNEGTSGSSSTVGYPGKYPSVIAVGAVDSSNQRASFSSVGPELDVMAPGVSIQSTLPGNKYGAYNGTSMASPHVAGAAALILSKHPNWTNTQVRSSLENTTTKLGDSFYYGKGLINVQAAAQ
The data set is described as follows: Homogeneous aqueous enzymatic resolution (ester hydrolysis) with Enzyme D. The format is biochemical. The conditions noted are these: 150 mg enzyme D, 0.010 mol ester in 100 ml 0.2 M sodium phosphate buffer pH 7.8.

The subject of data set [4] is Pig Liver Esterase (E). Nature of the data set: Homogeneous aqueous enzymatic resolution (ester hydrolysis) with Enzyme E. The format is biochemical. The conditions noted are these: 30 mg Pig Liver Esterase (E), 0.010 mol ester in 100 ml 0.2 M sodium phosphate buffer pH 7.8.
For data set [5], the target named is T3, Protease XVI: from Bacillus subtilis (Enzyme C) (Bacillus subtilis, UniProt P04189).
T3 sequence (P04189 107-381): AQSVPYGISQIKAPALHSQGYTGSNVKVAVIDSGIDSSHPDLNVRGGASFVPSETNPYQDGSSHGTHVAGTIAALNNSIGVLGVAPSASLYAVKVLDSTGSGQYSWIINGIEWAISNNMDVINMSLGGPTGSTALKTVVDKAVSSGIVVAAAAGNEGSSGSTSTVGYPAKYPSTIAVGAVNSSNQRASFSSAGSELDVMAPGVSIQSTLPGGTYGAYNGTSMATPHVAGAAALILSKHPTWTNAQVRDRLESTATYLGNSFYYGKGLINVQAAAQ
Nature of the data set: Homogeneous aqueous enzymatic resolution (ester hydrolysis) with Enzyme C. The format is biochemical. To be noted: acid product; 100 mg enzyme C, 10 mmol ester in 100 ml 0.2 M phosphate buffer pH 7.0, 20-22° C., 20 hours.

The subject of data set [6] is protease Prozyme 6 (Enzyme F). Nature of the data set: Homogeneous aqueous enzymatic resolution (ester hydrolysis) with Enzyme F. The format is biochemical, Asperqillus oryzae. The conditions noted are these: 100 mg Prozyme 6 (F), 10 mmol ester in 100 ml 0.2 M buffer pH 7.0, 25° C., 18 hours. How it is done: (Prozyme 6) (F) added. The enzymatic reaction mixtures were capped and briefly shaken until all the substrate had dissolved, and the enzyme had completely dissolved or dispersed. […] Evaporation of the ether left a white solid. Rotations were measured at c=1 in CHCl3.
The enzymatic reaction mixtures were capped and briefly shaken until all the substrate had dissolved, and the enzyme had completely dissolved or dispersed. […] Evaporation of the ether left a white solid. Rotations were measured at c=1 in CHCl3.
The reaction was started by adding 100 mg of the protease (F) from the fungus Asperqillus oryzae (from Amano Enzyme Corporation, Prozyme 6, 60,000 units per mg of solid).
After 20 hours at room temperature, the solution was acidified to pH 2 and extracted with 3 volumes of diethyl ether. The aqueous phase was saved for subsequent workup. The ether phase was washed with two volumes of distilled water and then one volume of saturated sodium chloride, and then it was dried over MgSO4 and subsequently evaporated to dryness. The resolved ibuprofen product recovered was 930 mg of white powder, indicating 45% conversion of racemic ester to acid. The optical rotation was -0.580° (measured at c=1 in ethanol), indicating the R isomer of ibuprofen.
35 mg of protease Enzyme F, as the commercial preparation Prozyme 6, were added to the aqueous solution. The reaction flask was capped, and briefly shaken until all the enzyme had dissolved or dispersed. […] The resulting mixture was diluted with one volume of water and was extracted with diethyl ether (2 times 200 ml). The ether layers were combined and backwashed with water (2 times 200 ml), saturated NaCl solution (200 ml), and then dried over MgSO4.
In this control run, a 0.5 M ester solution of (1) was prepared in 325 ml of 0.1 M sodium phosphate buffer (pH 7.0). The reaction was started by adding 3 gm of the above enzyme (F). The pH was controlled at 7.0 with 8.22 M sodium hydroxide. After 6.49 hours at 30° C., 6.63 ml of hydroxide were added, indicating 37.7% conversion. […]

For data set [7] the following is noted: cited from earlier work.
The mark [8] stands for this setting: 100 mg enzyme B, 10.0 mmol ester in 100 ml 0.2 M Na3 PO4 buffer pH 7.0, 25° C., 18 hours.
[9] abbreviates: 100 mg enzyme A, 10.0 mmol ester in 100 ml 0.2 M buffer pH 7.0, 25° C., 18 hours.
Setting [10] is: 100 mg enzyme A, 10 mmol ester in 100 ml 0.2 M phosphate buffer pH 7.0, 20-22° C., 20 hours.
Setting [11] is: 150 mg enzyme B, 0.010 mol ester in 100 ml 0.2 M sodium phosphate buffer pH 7.8.
Setting [12] is: 150 mg enzyme A, 0.010 mol ester in 100 ml 0.2 M sodium phosphate buffer pH 7.8.
Where [13] appears, read: 100 mg enzyme B, 10 mmol ester in 100 ml 0.2 M phosphate buffer pH 7.0, 20-22° C., 20 hours.
Where [14] appears, read: 100 mg Protease XXIII (A), pH 7.5, 25 degrees, 16 hours.

As for `CC(CSC(=O)c1ccccc1)C(=O)OCS(=O)(=O)O` (racemic) [Compound 16, Potassium Salt of the Sulfomethyl Ester of (+)-S-3-Benzoylthio-2-methylpropanoic Acid], the “% CONVERSION” value in data set [1] (setting [8]) came to 26%; in data set [2] (setting [9]), 53%. For the same compound, the “% e.e.” value stood at 10% in data set [1] (setting [8]) and 3% in data set [2] (setting [9]).
Turning to `CC(C)Cc1ccc(C(C)C(=O)OCCS(=O)(=O)O)cc1` (centres unmarked) [Compound 2, Sodium Salt of 2-Sulfoethyl Ester of 2-(4-Isobutylphenyl)propanoic Acid], in data set [2] (setting [10]), the “% CONVERSION” value was 22.3% and the “% e.e.” value is listed as 93.3%.
As for `CC(C)Cc1ccc(C(C)C(=O)OCCCS(=O)(=O)O)cc1` (centres unmarked) [Compound 3, Potassium Salt of 3-Sulfopropyl Ester of 2-(4-Isobutylphenyl)propanoic Acid], the “% CONVERSION” value in data set [1] (setting [11]) stood at 36.4%; in data set [3], 32.0%; in data set [4] it was 12.1%; in data set [2] (setting [10]) it was 50.0%; in data set [2] (setting [12]), 47.1%. Moreover, the “% e.e.” value in data set [1] (setting [11]) came out at 98.6%; in data set [3] (acid product), 91.0%; in data set [4] (acid product) it was 88.0%; in data set [2] (setting [10]), 84.2%; in data set [2] (setting [12]) it was 97.7%. Moreover, the “conversion of the racemic ester to acid” value in data set [2] (1.00 gm protease (A), about 1 M ester, 40 ml, pH 7.0, room temperature, 23.9 hours, by NaOH titration) was determined as 29%.
`CC(C)Cc1ccc(C(C)C(=O)OCCCCS(=O)(=O)O)cc1` (centres unmarked) [Compound 4, Potassium Salt of 4-Sulfobutyl Ester of 2-(4-Isobutylphenyl)propanoic Acid]: the “% CONVERSION” value in data set [1] (setting [13]) is recorded as 20.0%; in data set [2] (setting [10]), 43.2%. The “% e.e.” value in data set [1] (setting [13]) was found to be 92.1%; in data set [5], 61.7%; in data set [2] (setting [10]), 97.4%.
Take `CC(C)Cc1ccc(C(C)C(=O)OCCOP(=O)(O)O)cc1` (centres unmarked) [Compound 5, Disodium Salt of the Phosphoric Acid Ester of the 2-Hydroxyethyl Ester of 2-(4-Isobutylphenyl)propanoic Acid]: in data set [5], the “% e.e.” value came to 75.6%.
As for `CC(C)Cc1ccc(C(C)C(=O)OCCCOS(=O)(=O)O)cc1` (centres unmarked) [Compound 6, Potassium Salt of the Sulfuric Acid Ester of 3-Hydroxypropyl Ester of 2-(4-Isobutylphenyl)propanoic Acid], in data set [2] (setting [10]), the “% CONVERSION” value came to 24.3% and the “% e.e.” value amounted to 96.5%.
In the case of `COc1ccc2cc(C(C)C(=O)OCS(=O)(=O)O)ccc2c1` (centres unmarked) [Compound 9, Sodium Salt of Sulfomethyl Ester of 2-(6-Methoxy-2-naphthyl)propanoic Acid], the “conversion (enzymatic hydrolysis)” value in data set [2] (100 mg Protease XXIII (A), 2.0 gm ester in 400 ml 50 mM sodium phosphate buffer pH 7.5, 25 degrees, 16 hours) turned out to be 18%. Besides, in data set [2] (setting [14]), the “enantiomeric excess of R isomer (acid product)” value came to 61.2% and the “enantiomeric excess of S isomer (acid from remaining ester after hydrolysis at pH 12)” value was found to be 45.5%.
For `CC(C)Cc1ccc(C(C)C(=O)OCC[N+](C)(C)C)cc1` (centres unmarked) [Compound 10, Iodide Salt of 2-(N,N,N-Trimethylammonium)ethyl Ester of 2-(4-Isobutylphenyl)propanoic Acid], in data set [2] (setting [10]), the “% CONVERSION” value is reported as 30.1% and the “% e.e.” value is more than 99%.
Turning to `COc1ccc2cc(C(C)C(=O)OCC[N+](C)(C)C)ccc2c1` (centres unmarked) [Compound 11, Methyl Sulfate Salt of 2-(N,N,N-Trimethylammonium)ethyl Ester of 2-(6-Methoxy-2-naphthyl)propanoic Acid], the “% e.e.” value in data set [6] (acid product) is recorded as 34.0%.
On to `COc1ccc2cc(C(C)C(=O)OCCC[N+](C)(C)C)ccc2c1` (centres unmarked) [Compound 12, Methyl Sulfate Salt of 3-(N,N,N-Trimethylammonium)propyl Ester of 2-(6-Methoxy-2-naphthyl)propanoic Acid], for which the “% CONVERSION” value in data set [6] came out at 34.0%.
`CC(Cl)C(=O)OCCCS(=O)(=O)O` (centres unmarked) [Compound 13, Potassium Salt of 3-Sulfopropyl Ester of 2-Chloropropanoic Acid]: the “conversion as measured by titrimetry (reaction stopped)” value in data set [1] (20 mg subtilisin protease (B), 8.05 gm ester in 300 ml 0.1 M potassium phosphate buffer pH 7.0) was determined as 25%.
On to `O=C1CCC(N2C(=O)c3ccccc3C2=O)C(=O)N1` [D-enantiomer of thalidomide, thalidomide], for which the sedative use entry in data set [7] (prescribed for the control of morning sickness during pregnancy) is “safe and effective sedative”.
Take `O=C1CC[C@H](N2C(=O)c3ccccc3C2=O)C(=O)N1` [L-thalidomide]: the teratogenicity entry in data set [7] (in vivo) is given as “potent teratogen”.
